This is an account of results in patent US7317125B2 (Hoffman-La Roche Inc., priority 2005, dated 2008).

The experiment deals with T1, DGAT1 (Homo sapiens, UniProt O75907).
T1 construct: expressed in transfected cells; host or cells: CHOK1
T1 sequence (O75907 1-488): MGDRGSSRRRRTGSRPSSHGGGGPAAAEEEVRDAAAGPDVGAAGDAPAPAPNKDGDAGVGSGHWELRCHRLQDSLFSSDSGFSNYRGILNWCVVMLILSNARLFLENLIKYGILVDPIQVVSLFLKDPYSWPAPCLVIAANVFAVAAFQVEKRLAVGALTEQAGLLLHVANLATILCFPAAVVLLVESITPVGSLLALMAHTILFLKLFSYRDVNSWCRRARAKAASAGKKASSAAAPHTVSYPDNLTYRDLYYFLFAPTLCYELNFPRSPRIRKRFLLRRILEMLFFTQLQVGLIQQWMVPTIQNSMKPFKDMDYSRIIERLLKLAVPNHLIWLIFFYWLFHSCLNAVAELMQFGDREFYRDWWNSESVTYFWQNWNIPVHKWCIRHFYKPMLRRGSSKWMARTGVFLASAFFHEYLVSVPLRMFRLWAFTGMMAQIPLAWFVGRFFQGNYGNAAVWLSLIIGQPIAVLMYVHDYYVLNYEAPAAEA
Briefly: DGAT CHOK1 Cell Assay. The conditions noted are these: CHOK1 cells transfected with DGAT1, 14C palmitic acid, 1 hour at 37° C., triglyceride by TLC. The format is cell-based. The source says:
Materials for the assay were: petroleum ether (J. T. Baker #9268-22); diethyl ether (Aldrich #30995-8); acetic acid; 1,2-dioleoyl-3-palmitoyl-glycerol (Sigma D-1782); ^[…] Palmitic Acid (56.0 mCi/mmol PerkinElmer Life Sciences # NEC 075H); DMEM/F12 (Gibco #11330-032); fetal bovine serum; L-Glutamine; G418/ml media; DMEM High Glucose (Gibco #11995-065); BSA Fraction V Fatty Acid Free (Roche #100 377); 20×°cm silica gel 60 glass plates (EM Science Plates #5721/7).
CHOK1/DGAT cell culture medium was prepared with DMEM/F12 (Gibco #11330-032), […], and 20 ul G418/ml media. 1,2-dioleoyl-3-palmitoyl-glycerol was prepared by dissolving 10 mg into 1 ml chloroform and stored at −20° C. in 100 μl aliquots. Test compounds were prepared as 10 mM stock solutions in DMSO and store at −20° C. before use. Test dilutions were prepared by five fold serial dilutions over final concentrations.
CHOK1 cells transfected with DGAT1 were diluted in 6 well plates at 2.5×10^5 cells per well and cultured overnight. Cells were then washed twice with PBS. Test compound solutions (10 μl/2 ml media aliquots) in DMEM High Glucose with 0.01% BSA (fatty acid free) were added to cell culture plates at 800 μl per well. ^14C Palmitic acid (0.5 μCi, 5 μl) was added to each well. The plates were incubated for 1 hour at 37° C. After the incubation period, the plates were placed on ice, cells were scraped into media and transferred to microfuge tubes. 400 μl chloroform:methanol (2:1) was added to each tube. Each tube was briefly vortexed by hand, then mechanically vortexed for 10 minutes. Each tube was then centrifuged at 14,000 RPM for 10 minutes at 4° C. and the bottom layer removed and transferred to a new microfuge tube.
Extracted samples were spotted onto TLC plates at 20 μl per lane. The TLC plates were eluted with a solvent mixture of petroleum ether, diethyl ether and acetic acid (80:20:1) and air dried. Trigylceride (TG) spots were visualized by placing in an iodine chamber for several minutes. 1 μl of ^14C palmitic acid (diluted 1:10 in 100% EtOH) was spotted on the TG standard lane (at TG level) as a reference. The TLC plates were wrapped in plastic wrap and placed in a phosphorimager cassette for scanning.
The EC50 values for those compounds tested in this Example were generated using an Excel template, the results of which are shown in Table II: […]
For `CC(C)N(NC(=O)C1CCOCC1)C(=O)COc1ccc(F)cc1-c1ccccc1OC(F)(F)F` [Example 34, tetrahydro-pyran-4-carboxylic-acid-N′-[2-(5-fluoro-2′-trifluoromethoxy-biphenyl-2-yloxy)-acetyl]-N′-isopropyl-hydrazide], the EC50 is 1.24 µM.

Turning to `CC(C)N(NC(=O)c1ccoc1)C(=O)COc1ccc(F)cc1-c1ccccc1OC(F)(F)F` [Example 37, furan-3-carboxylic acid N′-[2-(5-fluoro-2′-trifluoromethoxy-biphenyl-2-yloxy)-acetyl]-N′-isopropyl-hydrazide], the EC50 turned out to be 11.1 µM.

Compound `CC(C)N(NC(=O)C1CCCCC1)C(=O)COc1ccc(F)cc1-c1ccccc1OC(F)(F)F` [Example 38, cyclohexanecarboxylic acid N′-[2-(5-fluoro-2′-trifluoromethoxy-biphenyl-2-yloxy)-acetyl]-N′-isopropyl-hydrazide] had an EC50 of 2.81 µM.

For the compound `COCCOc1ccc(C(=O)NN(C(=O)COc2ccc(F)cc2-c2ccccc2OC(F)(F)F)C(C)C)cc1` [Example 39, 4-(2-methoxy-ethoxy)-benzoic acid N′-[2-(5-fluoro-2′-trifluoromethoxy-biphenyl-2-yloxy)-acetyl]-N′-isopropyl hydrazide], it took 3.05 µM to reach a half-maximal effect (EC50). The EC50 values of the last two compounds are within 1.5-fold of each other.

Turning to `CC(C)N(NC(=O)c1cccs1)C(=O)COc1ccc(F)cc1-c1ccccc1OC(F)(F)F` [Example 40, thiophene-2-carboxylic acid N′-[2-(5-fluoro-2′-trifluoromethoxy-biphenyl-2-yloxy)-acetyl]-N′-isopropyl hydrazide], the EC50 is 3.48 µM.

Regarding `CC(C)N(NC(=O)C1CCSCC1)C(=O)COc1ccc(F)cc1-c1ccccc1OC(F)(F)F` [Example 41, tetrahydro-thiopyran-4-carboxylic acid N′-[2-(5-fluoro-2′-trifluoromethoxy-biphenyl-2-yloxy)-acetyl]-N′-isopropyl hydrazide], the midpoint of the response, the EC50, lay at 0.774 µM. Against the preceding compound, the EC50 is about 4.5-fold lower.

Regarding `CC(C)N(NC(=O)c1ccsc1)C(=O)COc1ccc(F)cc1-c1ccccc1OC(F)(F)F` [Example 42, thiophene-3-carboxylic acid N′-[2-(5-fluoro-2′-trifluoromethoxy-biphenyl-2-yloxy)-acetyl]-N′-isopropyl hydrazide], the EC50 was 3.29 µM.

In turn, `CC(C)N(NC(=O)c1ccccc1)C(=O)CSc1ccccc1-c1cccc(F)c1` [Example 48, benzoic acid N′-[2-(3′-fluoro-biphenyl-2-ylsulfanyl)-acetyl]-N′-isopropyl-hydrazide] displayed an EC50 of 3.4 µM.

As for `Cc1cccc(-c2ccccc2SCC(=O)N(NC(=O)c2ccccc2)C(C)C)c1C` [Example 49, benzoic acid N′-[2-(2′,3′-dimethyl-biphenyl-2-ylsulfanyl)-acetyl]-N′-isopropyl-hydrazide], the EC50 was found to be 5.67 µM.

On to `COc1cccc(-c2ccccc2SCC(=O)N(NC(=O)c2ccccc2)C(C)C)c1` [Example 50, benzoic acid N′-[2-(3′-methoxy-biphenyl-2-ylsulfanyl)-acetyl]-N′-isopropyl-hydrazide], for which a half-maximal effect (EC50) was put at 1.29 µM.

Compound `CC(C)N(NC(=O)c1ccccc1)C(=O)CSc1ccccc1-c1ccc(F)cc1` [Example 51, benzoic acid N′-[2-(4′-fluoro-biphenyl-2-ylsulfanyl)-acetyl]-N′-isopropyl-hydrazide] registered an EC50 of 4.9 µM.

The compound `CC(C)N(NC(=O)c1ccccc1)C(=O)CSc1ccccc1-c1cccc(C(F)(F)F)c1` [Example 52, benzoic acid N′-[2-(3′-trifluoromethyl-biphenyl-2-ylsulfanyl)-acetyl]-N′-isopropyl-hydrazide] came in with an EC50 of 1.6 µM.

As for `COc1ccccc1-c1ccccc1SCC(=O)N(NC(=O)c1ccccc1)C(C)C` [Example 53, benzoic acid N′-[2-(2′-methoxy-biphenyl-2-ylsulfanyl)-acetyl]-N′-isopropyl-hydrazide], a half-maximal response (EC50) required 6.7 µM.

Compound `CC(C)N(NC(=O)c1ccccc1)C(=O)CSc1ccccc1-c1ccccc1F` [Example 54, benzoic acid N′-[2-(2′-fluoro-biphenyl-2-ylsulfanyl)-acetyl]-N′-isopropyl-hydrazide] came in with an EC50 of 1.43 µM. Against the preceding compound, the EC50 is about 4.7-fold lower.

As for `COc1ccc(-c2ccccc2SCC(=O)N(NC(=O)c2ccccc2)C(C)C)cc1` [Example 55, benzoic acid N′-[2-(4′-methoxy-biphenyl-2-ylsulfanyl)-acetyl]-N′-isopropyl-hydrazide], the midpoint of the response, the EC50, lay at 2.3 µM.

Compound `CC(C)N(NC(=O)c1ccccc1)C(=O)CSc1ccccc1-c1ccccc1` [Example 56, benzoic acid N′-[2-(biphenyl-2-ylsulfanyl)-acetyl]-N′-isopropyl-hydrazide] had an EC50 of 37.4 µM.

Compound `CC(C)CNc1ccc(C(=O)NN(C(=O)COc2ccc(F)cc2-c2ccccc2OC(F)(F)F)C(C)C)cc1` [Example 57, 4-(isobutylamino)-benzoic acid N′-[2-(5-fluoro-2′-trifluoromethoxy-biphenyl-2-yloxy)-acetyl]-N′-isopropyl hydrazide] had an EC50 of 0.348 µM.
